Measurements published in US20230159509A1 (Amathus Therapeutics, Inc., priority 2020, published 2023).
pEC50: −log10 of the molar value.

Target: T1, TRAP1 enzyme (Homo sapiens, UniProt Q12931)
T1 construct: 150 nM Trap1 enzyme was incubated with various concentrations of the test compound
T1 sequence (Q12931 60-704): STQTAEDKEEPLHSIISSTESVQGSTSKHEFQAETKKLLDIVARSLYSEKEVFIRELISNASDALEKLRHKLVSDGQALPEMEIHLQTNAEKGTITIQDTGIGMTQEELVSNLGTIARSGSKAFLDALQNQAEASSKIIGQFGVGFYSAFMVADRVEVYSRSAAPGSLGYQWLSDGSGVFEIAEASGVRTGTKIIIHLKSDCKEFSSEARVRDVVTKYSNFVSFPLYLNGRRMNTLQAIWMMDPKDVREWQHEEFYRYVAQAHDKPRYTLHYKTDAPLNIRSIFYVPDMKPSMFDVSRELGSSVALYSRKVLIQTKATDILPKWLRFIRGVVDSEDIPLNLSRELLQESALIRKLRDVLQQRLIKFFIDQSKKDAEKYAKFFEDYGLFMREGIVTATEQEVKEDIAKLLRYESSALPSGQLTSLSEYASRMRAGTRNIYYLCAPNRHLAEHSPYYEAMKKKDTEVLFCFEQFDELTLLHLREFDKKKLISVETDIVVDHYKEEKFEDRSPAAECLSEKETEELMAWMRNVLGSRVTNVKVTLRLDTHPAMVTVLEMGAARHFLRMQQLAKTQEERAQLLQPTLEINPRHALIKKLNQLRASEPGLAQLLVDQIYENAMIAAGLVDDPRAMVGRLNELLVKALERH
Experiment: Malachite green phosphate assay of TRAP1 ATPase activity
Assay type: biochemical
Conditions: concentration for half maximal activation; read-out: Malachite Green Fluor DRC: GeoMean EC50
Experimental: The Potency of test compounds to modulate the ATPase activity of TRAP1 enzyme was evaluated using malachite green phosphatase assay. The assay is based on quantification of the green complex formed between Malachite Green, molybdate and inorganic phosphate generated in the phosphatase reaction. Assays were performed using a Malachite Green assay kit. All the assays were carried out in a 96-well transparent plate. The buffer used was 50 mM HEPES (pH 7.5), 20 mM KCl, 4 mM MgCl2 and 0.05% BSA. 150 nM Trap1 enzyme was incubated with various concentrations of the test compound (0.78 μM-100 μM) at 37° C. for 30 mins. 20 μM ATP was added to each well (except blank wells) to start the reaction and the plate was then incubated at 37° C. for 180 mins. 10 μl of the reaction volume of each sample was then transferred to a white 384-well proxiplate in quadruplets. 2.5 μl of Malachite Green reagent was added to all the wells and the plate was equilibrated for 15 mins. The reaction was stopped by adding 12% H2SO4 and the plate was read for fluorescence at 620 nm (λex=573 nm). The amount of phosphate released was estimated from a phosphate standard curve generated at the same experimental conditions. Emax (Maximal percent activation) and EC50 (concentration of test compound for half maximal activation) were estimated by fitting the dose response data to a sigmoidal curve fitting equation using Graphpad Prism software V.7.0.

pEC50	SMILES
4.70 to 5.00	COc1ncc(NC(=O)c2ncc(-c3ccccc3)o2)cc1S(=O)(=O)Nc1ccc(Cl)cc1 [compound 535, N-(5-(N-(4-chlorophenyl)sulfamoyl)-6-methoxypyridin-3-yl)-5-phenyloxazole-2-carboxamide]
4.00 to 4.70	Cc1cccc(C)c1NS(=O)(=O)c1cncc(NC(=O)c2cnc(-c3ccccc3)[nH]2)c1 [compound 592, N-(5-(N-(2,6-dimethylphenyl)sulfamoyl)pyridin-3-yl)-2-phenyl-1H-imidazole-5-carboxamide]
4.00 to 4.70	COc1ncc(NC(=O)c2ncc(-c3ccccc3)o2)cc1S(=O)(=O)Nc1ccc(C(F)(F)F)cc1 [compound 594, N-(6-methoxy-5-(N-(4-(trifluoromethyl)phenyl)sulfamoyl)pyridin-3-yl)-5-phenyloxazole-2-carboxamide]
4.00 to 4.70	COc1ncc(NC(=O)c2cnc(-c3ccccc3)o2)cc1S(=O)(=O)Nc1ccc(C(F)(F)F)cc1 [compound 604, N-(6-methoxy-5-(N-(4-(trifluoromethyl)phenyl)sulfamoyl)pyridin-3-yl)-2-phenyloxazole-5-carboxamide]
4.00 to 4.70	O=C(Nc1cccc(S(=O)(=O)Nc2ccc(Cl)cc2)n1)c1cnc(-c2ccccc2)[nH]1 [compound 612, N-(6-(N-(4-chlorophenyl)sulfamoyl)pyridin-2-yl)-2-phenyl-1H-imidazole-5-carboxamide]
4.00 to 4.70	COc1ncc(NC(=O)c2ncc(-c3ccccc3)o2)cc1S(=O)(=O)Nc1c(Cl)cccc1Cl [compound 670, N-(5-(N-(2,6-dichlorophenyl)sulfamoyl)-6-methoxypyridin-3-yl)-5-phenyloxazole-2-carboxamide]

Same assay, conditions: maximal percent activation; read-out: Malachite Green Fluor DRC: Mean Emax

Emax [%]	SMILES
160 to 199	COc1ncc(NC(=O)c2ncc(-c3ccccc3)o2)cc1S(=O)(=O)Nc1ccc(Cl)cc1 [compound 535, N-(5-(N-(4-chlorophenyl)sulfamoyl)-6-methoxypyridin-3-yl)-5-phenyloxazole-2-carboxamide]
160 to 199	Cc1cccc(C)c1NS(=O)(=O)c1cncc(NC(=O)c2cnc(-c3ccccc3)[nH]2)c1 [compound 592, N-(5-(N-(2,6-dimethylphenyl)sulfamoyl)pyridin-3-yl)-2-phenyl-1H-imidazole-5-carboxamide]
119 to 159	COc1ncc(NC(=O)c2ncc(-c3ccccc3)o2)cc1S(=O)(=O)Nc1ccc(C(F)(F)F)cc1 [compound 594, N-(6-methoxy-5-(N-(4-(trifluoromethyl)phenyl)sulfamoyl)pyridin-3-yl)-5-phenyloxazole-2-carboxamide]
160 to 199	COc1ncc(NC(=O)c2cnc(-c3ccccc3)o2)cc1S(=O)(=O)Nc1ccc(C(F)(F)F)cc1 [compound 604, N-(6-methoxy-5-(N-(4-(trifluoromethyl)phenyl)sulfamoyl)pyridin-3-yl)-2-phenyloxazole-5-carboxamide]
200 to 300	O=C(Nc1cccc(S(=O)(=O)Nc2ccc(Cl)cc2)n1)c1cnc(-c2ccccc2)[nH]1 [compound 612, N-(6-(N-(4-chlorophenyl)sulfamoyl)pyridin-2-yl)-2-phenyl-1H-imidazole-5-carboxamide]
200 to 300	COc1ncc(NC(=O)c2ncc(-c3ccccc3)o2)cc1S(=O)(=O)Nc1c(Cl)cccc1Cl [compound 670, N-(5-(N-(2,6-dichlorophenyl)sulfamoyl)-6-methoxypyridin-3-yl)-5-phenyloxazole-2-carboxamide]

Target: T1, TRAP1 enzyme
Experiment: ADP Glo assay of TRAP1 ATPase activity
Assay type: biochemical
Conditions: 1 h; compound concentration 50 μM; read-out: ADP-Glo Percent Activation at 50 μM
In short: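 ADP-Glo luminescence quantifying ADP from 150 nM TRAP1 preincubated 30 min at 37° C with compound (0.79–100 μM), then 20 μM ATP for 60 min at 37° C. Buffer: 25 mM Pipes pH 7.5, 40 mM KCl, 0.05 mM MgCl2, EGTA, BSA, detergents. ADP from ATP/ADP standard curve; Emax and EC50 from sigmoidal fit.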

SMILES	activation at 50 µM [%]
COc1ncc(NC(=O)c2ccc(CN3CCCC3)cc2)cc1S(=O)(=O)Nc1c(C)cccc1C [compound 2751]	120 to 150
COc1ncc(NC(=O)c2nnsc2C2CC2)cc1S(=O)(=O)Nc1c(C)cccc1C [compound 2758]	151 to 180
COc1ncc(NC(=O)c2cccnc2N2CCOCC2)cc1S(=O)(=O)Nc1c(C)cccc1C [compound 2759]	181 to 352
COc1ncc(NC(=O)c2ccc(NS(C)(=O)=O)cc2)cc1S(=O)(=O)Nc1c(C)cccc1C [compound 2761]	181 to 352
COc1ncc(NC(=O)c2ccc(N3CCN(C)CC3)c(Cl)c2)cc1S(=O)(=O)Nc1c(C)cccc1C [compound 2764]	181 to 352
COc1nc(C(F)(F)F)c(C(=O)Nc2cnc(OC)c(S(=O)(=O)Nc3c(C)cccc3C)c2)s1 [compound 2768]	181 to 352
CCCN1CCN(c2ccc(C(=O)Nc3cnc(OC)c(S(=O)(=O)Nc4c(C)cccc4C)c3)cc2)CC1 [compound 2769]	181 to 352
COc1ncc(NC(=O)c2ccc(CN3CCCCC3)cc2)cc1S(=O)(=O)Nc1c(C)cccc1C [compound 2770]	151 to 180
COc1ncc(NC(=O)c2ccc(N3CCN(C)CC3)cc2Cl)cc1S(=O)(=O)Nc1c(C)cccc1C [compound 2774]	181 to 352
COc1ncc(NC(=O)c2ccc(N3CCN(C)CC3)nc2)cc1S(=O)(=O)Nc1c(C)cccc1C [compound 2775]	181 to 352
COc1ncc(NC(=O)c2cccc(N3CCOCC3)c2C)cc1S(=O)(=O)Nc1c(C)cccc1C [compound 2782]	181 to 352
COc1ncc(NC(=O)c2cccc(NC(=O)N(C)C)c2)cc1S(=O)(=O)Nc1c(C)cccc1C [compound 2784]	181 to 352
COc1nc2c(cc1C(=O)Nc1cnc(OC)c(S(=O)(=O)Nc3c(C)cccc3C)c1)CCC2 [compound 2790]	181 to 352
CCN1CCN(c2ccc(C(=O)Nc3cnc(OC)c(S(=O)(=O)Nc4c(C)cccc4C)c3)cc2)CC1 [compound 2791]	181 to 352
COc1ncc(NC(=O)c2cc3c(s2)CCC3)cc1S(=O)(=O)Nc1c(C)cccc1C [compound 2792]	120 to 150

The next lines start with the values.

activation at 50 µM [%]	SMILES
120 to 150	CCn1cc(C(=O)Nc2cnc(OC)c(S(=O)(=O)Nc3c(C)cccc3C)c2)cn1 [compound 2750]
120 to 150	CCc1noc(C)c1C(=O)Nc1cnc(OC)c(S(=O)(=O)Nc2c(C)cccc2C)c1 [compound 2752]
120 to 150	COc1ncc(NC(=O)c2ncc[nH]2)cc1S(=O)(=O)Nc1c(C)cccc1C [compound 2753]
120 to 150	COc1ncc(NC(=O)c2cc(C)no2)cc1S(=O)(=O)Nc1c(C)cccc1C [compound 2754]
151 to 180	COc1ncc(NC(=O)c2cn(C(C)(C)C)nn2)cc1S(=O)(=O)Nc1c(C)cccc1C [compound 2755]
151 to 180	COc1ncc(NC(=O)c2n[nH]cc2C)cc1S(=O)(=O)Nc1c(C)cccc1C [compound 2756]
120 to 150	COc1ncc(NC(=O)c2cnn(C)c2OC)cc1S(=O)(=O)Nc1c(C)cccc1C [compound 2762]
151 to 180	COc1ncc(NC(=O)c2ccc(CO)cc2)cc1S(=O)(=O)Nc1c(C)cccc1C [compound 2766]
181 to 352	COc1ncc(NC(=O)c2cccc(CO)c2)cc1S(=O)(=O)Nc1c(C)cccc1C [compound 2767]
151 to 180	COc1ncc(NC(=O)c2cn3c(n2)CCCC3)cc1S(=O)(=O)Nc1c(C)cccc1C [compound 2771]
120 to 150	COc1ncc(NC(=O)c2nccn2C)cc1S(=O)(=O)Nc1c(C)cccc1C [compound 2772]
120 to 150	COc1ncc(NC(=O)c2cnn(C)c2C)cc1S(=O)(=O)Nc1c(C)cccc1C [compound 2776]
120 to 150	COc1ncc(NC(=O)c2csnn2)cc1S(=O)(=O)Nc1c(C)cccc1C [compound 2777]
151 to 180	COc1ncc(NC(=O)c2[nH]ncc2Cl)cc1S(=O)(=O)Nc1c(C)cccc1C [compound 2779]
151 to 180	COc1ncc(NC(=O)c2nnsc2C)cc1S(=O)(=O)Nc1c(C)cccc1C [compound 2780]
120 to 150	COc1ncc(NC(=O)c2ccno2)cc1S(=O)(=O)Nc1c(C)cccc1C [compound 2781]
120 to 150	COCc1c[nH]c(C(=O)Nc2cnc(OC)c(S(=O)(=O)Nc3c(C)cccc3C)c2)c1 [compound 2785]
181 to 352	CCc1cc(C(=O)Nc2cnc(OC)c(S(=O)(=O)Nc3c(C)cccc3C)c2)nn1C [compound 2786]
151 to 180	COc1ncc(NC(=O)c2ccc(C(C)(C)O)cc2)cc1S(=O)(=O)Nc1c(C)cccc1C [compound 2787]
181 to 352	COc1ncc(NC(=O)c2ccc(N(C)C)nc2)cc1S(=O)(=O)Nc1c(C)cccc1C [compound 2788]
120 to 150	COc1ncc(NC(=O)c2cnccc2N(C)C)cc1S(=O)(=O)Nc1c(C)cccc1C [compound 2789]
181 to 352	COc1ncc(NC(=O)c2cnc3c(c2)OCCN3C)cc1S(=O)(=O)Nc1c(C)cccc1C [compound 2793]

Same assay, conditions: concentration for half maximal activation; read-out: ADP GLO DRC: GeoMean EC50

pEC50	SMILES
4.00 to 4.70	COc1ncc(NC(=O)c2ncc(-c3ccccc3)o2)cc1S(=O)(=O)Nc1c(Cl)cccc1Cl [compound 670, N-(5-(N-(2,6-dichlorophenyl)sulfamoyl)-6-methoxypyridin-3-yl)-5-phenyloxazole-2-carboxamide]

Same assay, conditions: maximal percent activation; read-out: ADP GLO DRC: Mean Emax

Emax [%]	SMILES
160 to 199	COc1ncc(NC(=O)c2ncc(-c3ccccc3)o2)cc1S(=O)(=O)Nc1c(Cl)cccc1Cl [compound 670, N-(5-(N-(2,6-dichlorophenyl)sulfamoyl)-6-methoxypyridin-3-yl)-5-phenyloxazole-2-carboxamide]
